# Test results: patent US8614206B2 (Genentech, Inc., priority 2011, dated 2013)
# Read-outs that look alike come from different tables or passages of the source.
# How the values were obtained:
# [1] = test system: MM1.S (multiple myeloma) cells; test: In vitro cell proliferation, MM1.S multiple myeloma cells (CellTiter-Glo, ATP); assay type: cell-based; conditions: read-out: Prolif MM1S ATP (EC50)
# How it was run: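 BaF3 parental cells (medium with 2 ng/mL mIL-3) seeded at 2 k/well and MM1.S at 10 k/well, then exposed to test compound at 37° C, 5% CO2: BaF3 overnight, MM1.S for 72 hours. Viability read by CellTiter-Glo; IC50/EC50 values calculated.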
# BaF3 parental cells = test: In vitro cell proliferation, BaF3 parental line + IL3 (CellTiter-Glo); assay type: cell-based, murine
# BaF3 PIM1 cells = test: cells; conditions: Mus musculus
# PIM1 = PIM1 (Homo sapiens (Human), UniProt P11309); test: Pim kinase inhibition, PIM1 LC3K (Example 901); assay type: biochemical
# Chain of PIM1 (P11309 whole entry): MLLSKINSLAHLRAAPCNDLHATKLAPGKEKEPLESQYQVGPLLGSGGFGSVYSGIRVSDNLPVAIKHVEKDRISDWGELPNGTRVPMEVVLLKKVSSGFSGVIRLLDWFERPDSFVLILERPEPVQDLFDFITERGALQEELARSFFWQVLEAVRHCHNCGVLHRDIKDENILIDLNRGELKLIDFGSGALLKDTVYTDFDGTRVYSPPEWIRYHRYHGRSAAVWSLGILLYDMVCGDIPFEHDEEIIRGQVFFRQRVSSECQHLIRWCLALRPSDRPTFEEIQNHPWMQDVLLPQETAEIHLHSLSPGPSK
# Excerpt: Determination of the Pim kinase activity of a Formula I compound is possible by a number of direct and indirect detection methods.
# [2] = Mus musculus, BaF3, BaF3 parental cells with IL-3, incubated overnight, read-out: Prolif BaF3 IL3 (IC50)
# [3] = BaF3, read-out: Prolif BaF3 PIM1 (IC50), BaF3 PIM1 cells, incubated overnight
# [4] = Mus musculus, BaF3, BaF3 parental cells with IL-3, incubated overnight, read-out: Prolif BaF3 + IL3 (IC50)
# [5] = BaF3, read-out: Prolif BaF3_PIM1 (IC50), BaF3 PIM1 cells, incubated overnight
# [6] = BaF3 parental cells with IL-3, incubated overnight, read-out: Prolif BaF3 + IL3 (IC50)
SMILES,"EC50 ([1]; Homo sapiens, MM1.S, 72 h)",IC50 (BaF3 parental cells; [4]),IC50 (BaF3 PIM1 cells; [5]),Ki (PIM1),other results
"Cn1ncc(NC(=O)c2nc(-c3c(F)cccc3F)sc2N)c1N1CCC(N)CC(F)(F)C1 (stereo not drawn) [Example 121, 5-Amino-N-(5-(5-amino-3,3-difluoroazepan-1-yl)-1-methyl-1H-pyrazol-4-yl)-2-(2,6-difluorophenyl)thiazole-4-carboxamide]",50.2 nM,–,–,–,IC50 (BaF3 parental cells; [2]): 4800 nM; IC50 (BaF3 PIM1 cells; [3]): 21 nM
"[2H]C([2H])([2H])n1ncc(NC(=O)c2nc(-c3c(F)cccc3F)sc2N)c1N1CC[C@@H](N)CC(F)(F)C1 [Example 494, 5-amino-N-[5-[(5R)-5-amino-3,3-difluoro-azepan-1-yl]-1-(trideuteriomethyl)pyrazol-4-yl]-2-(2,6-difluorophenyl)thiazole-4-carboxamide]",54.6 nM,8900 nM,13.4 nM,–,–
"Cn1ncc(NC(=O)c2nc(-c3c(F)ccc(I)c3F)sc2N)c1N1CC[C@H](N)CC(F)(F)C1 [Example 347, 5-amino-N-[5-[(5S)-5-amino-3,3-difluoro-azepan-1-yl]-1-methyl-pyrazol-4-yl]-2-(2,6-difluoro-3-iodo-phenyl)thiazole-4-carboxamide]",–,2400 nM,69.2 nM,0.002 nM,–
"Cc1ccncc1-c1nc(C(=O)Nc2cnn(C)c2N2CC[C@@H](N)[C@H](F)CC2)c(N)s1 [Example 428, 5-amino-N-[5-[(4R,5R)-4-amino-5-fluoro-azepan-1-yl]-1-methyl-pyrazol-4-yl]-2-(4-methyl-3-pyridyl)thiazole-4-carboxamide]",–,> 25000 nM,6600 nM,0.884 nM,–
"[2H]C([2H])([2H])n1ncc(NC(=O)c2nc(-c3c(F)cccc3F)sc2N)c1N1CC[C@H](N)CC(F)(F)C1 [Example 493, 5-amino-N-[5-[(5S)-5-amino-3,3-difluoro-azepan-1-yl]-1-(trideuteriomethyl)pyrazol-4-yl]-2-(2,6-difluorophenyl)thiazole-4-carboxamide]",3000 nM,7800 nM,17.7 nM,–,–
"Cc1cnc(F)c(-c2nc(C(=O)Nc3cnn(C)c3N3CCC[C@H](N)CC3)c(N)s2)c1 [Example 425, 5-amino-N-[5-[(4S)-4-aminoazepan-1-yl]-1-methyl-pyrazol-4-yl]-2-(2-fluoro-5-methyl-3-pyridyl)thiazole-4-carboxamide]",–,> 25000 nM,2500 nM,0.144 nM,–
"Cn1ncc(NC(=O)c2nc(-c3cccc(C#N)n3)sc2N)c1N1CC[C@@H](N)[C@H](F)CC1 [Example 432, 5-amino-N-[5-[(4R,5R)-4-amino-5-fluoro-azepan-1-yl]-1-methyl-pyrazol-4-yl]-2-(6-cyano-2-pyridyl)thiazole-4-carboxamide]",–,6300 nM,5800 nM,1.44 nM,–
"Cc1c(-c2nc(C(=O)Nc3cnn(C)c3N3CC[C@@H](N)[C@H](F)CC3)c(N)s2)cnn1C [Example 429, 5-amino-N-[5-[(4R,5R)-4-amino-5-fluoro-azepan-1-yl]-1-methyl-pyrazol-4-yl]-2-(1,5-dimethylpyrazol-4-yl)thiazole-4-carboxamide]",–,> 25000 nM,5300 nM,0.315 nM,–
"Cn1ncc(NC(=O)c2nc(-c3ccccc3F)sc2N)c1N1CCCC(C)(N)CC1 (single isomer, unassigned) [Example 434, 5-amino-N-[5-(4-amino-4-methyl-azepan-1-yl)-1-methyl-pyrazol-4-yl]-2-(2-fluorophenyl)thiazole-4-carboxamide]",–,15500 nM,1000 nM,0.093 nM,–
"Cn1ncc(NC(=O)c2nc(-c3ccccc3F)sc2N)c1N1CCCC(C)(N)CC1 (stereo not drawn) [Example 433, 5-amino-N-[5-(4-amino-4-methyl-azepan-1-yl)-1-methyl-pyrazol-4-yl]-2-(2-fluorophenyl)thiazole-4-carboxamide]",–,11100 nM,1300 nM,0.024 nM,–
"Cn1ncc(NC(=O)c2nc(-c3c(F)ccc(I)c3F)sc2N)c1N1CC[C@@H](N)CC(F)(F)C1 [Example 346, 5-amino-N-[5-[(5R)-5-amino-3,3-difluoro-azepan-1-yl]-1-methyl-pyrazol-4-yl]-2-(2,6-difluoro-3-iodo-phenyl)thiazole-4-carboxamide]",–,1200 nM,1500 nM,0.002 nM,–
"Cn1ncc(NC(=O)c2nc(-c3ccncc3F)sc2N)c1N1CCC(N)CC(F)(F)C1 (racemic) [Example 426, 5-amino-N-[5-(5-amino-3,3-difluoro-azepan-1-yl)-1-methyl-pyrazol-4-yl]-2-(3-fluoro-4-pyridyl)thiazole-4-carboxamide]",–,24800 nM,25.1 nM,0.034 nM,–
"Nc1sc(-c2c(F)cccc2F)nc1C(=O)Nc1cnn(CC(F)F)c1N1CCCC[C@H](N)C1 [Example 103, (S)-5-amino-N-(5-(3-aminoazepan-1-yl)-1-(2,2-difluoroethyl)-1H-pyrazol-4-yl)-2-(2,6-difluorophenyl)thiazole-4-carboxamide]",–,–,–,0.083 nM,IC50 (BaF3 parental cells; [2]): 8200 nM; IC50 (BaF3 PIM1 cells; [3]): 4200 nM
"COC1(C)CC(N)CCN(c2c(NC(=O)c3nc(-c4c(F)cccc4F)sc3N)cnn2C)C1 (single isomer, unassigned) [Example 352, 5-amino-N-[5-(5-amino-3-methoxy-3-methyl-azepan-1-yl)-1-methyl-pyrazol-4-yl]-2-(2,6-difluorophenyl)thiazole-4-carboxamide]",–,–,–,–,EC50 ([1]; 72 hours): 8.69 nM; IC50 (BaF3 parental cells; [6]): 10400 nM
"CCn1ncc(NC(=O)c2nc(-c3c(F)cccc3F)sc2N)c1N1CC[C@H](N)[C@@H](F)CC1 [Example 348, 5-amino-N-(5-((4S,5S)-4-amino-5-fluoroazepan-1-yl)-1-ethyl-1H-pyrazol-4-yl)-2-(2,6-difluorophenyl)thiazole-4-carboxamide]",–,11200 nM,825 nM,0.109 nM,–
"Cn1ncc(NC(=O)c2nc(-c3c(F)cccc3F)sc2N)c1N1CCCC2(CNC2)C1 [Example 508, 5-amino-N-[5-(2,6-diazaspiro[3.5]nonan-6-yl)-1-methyl-pyrazol-4-yl]-2-(2,6-difluorophenyl)thiazole-4-carboxamide]",3000 nM,25000 nM,–,–,–
"COC1(C)CCN(c2c(NC(=O)c3nc(-c4c(F)cccc4F)sc3N)cnn2C)CCC1N (single isomer, unassigned) [Example 502, 5-amino-N-[5-(5-amino-4-methoxy-4-methyl-azepan-1-yl)-1-methyl-pyrazol-4-yl]-2-(2,6-difluorophenyl)thiazole-4-carboxamide]",–,11900 nM,–,–,EC50 ([1]; 72 hours): 2200 nM
"Cn1ncc(NC(=O)c2nc(-c3c(F)cccc3F)sc2N)c1N1CCC2(CC1)CNCCO2 [Example 484, 5-amino-2-(2,6-difluorophenyl)-N-[1-methyl-5-(1-oxa-4,9-diazaspiro[5.5]undecan-9-yl)pyrazol-4-yl]thiazole-4-carboxamide]",13700 nM,14300 nM,–,–,–
"Cn1ncc(NC(=O)c2nc(-c3c(F)cccc3F)sc2N)c1C1CCC(N)CC(C)(O)C1 (single isomer, unassigned) [Example 468, 5-amino-N-[5-(5-amino-3-hydroxy-3-methyl-cycloheptyl)-1-methyl-pyrazol-4-yl]-2-(2,6-difluorophenyl)thiazole-4-carboxamide]",–,–,–,–,EC50 ([1]; 72 hours): 824 nM; IC50 (BaF3 parental cells; [6]): > 25000 nM
"Cn1ncc(NC(=O)c2nc(-c3c(F)cccc3F)sc2N)c1N1CC[C@@H]2NC(=O)O[C@@H]2CC1 [Example 488, N-[5-[(3aS,8aR)-2-oxo-3a,4,5,7,8,8a-hexahydro-3H-oxazolo[4,5-d]azepin-6-yl]-1-methyl-pyrazol-4-yl]-5-amino-2-(2,6-difluorophenyl)thiazole-4-carboxamide]",–,5400 nM,2000 nM,0.353 nM,–
"Cn1ncc(NC(=O)c2nc(-c3c(F)cccc3F)sc2N)c1N1CC[C@@H]2OC(=O)N[C@@H]2CC1 [Example 486, N-[5-[(3aR,8aS)-2-oxo-3a,4,5,7,8,8a-hexahydro-3H-oxazolo[4,5-d]azepin-6-yl]-1-methyl-pyrazol-4-yl]-5-amino-2-(2,6-difluorophenyl)thiazole-4-carboxamide]",–,11200 nM,2300 nM,0.058 nM,–
"C=C1C[C@@H](N)CCN(c2c(NC(=O)c3nc(-c4c(F)cccc4F)sc3N)cnn2C)C1 [Example 449, 5-amino-N-[5-[(5R)-5-amino-3-methylene-azepan-1-yl]-1-methyl-pyrazol-4-yl]-2-(2,6-difluorophenyl)thiazole-4-carboxamide]",4200 nM,8500 nM,–,–,–
"Cn1ncc(NC(=O)c2nc(-c3c(F)cccc3F)sc2N)c1N1CCC(C)(N)CC(F)(F)C1 (stereo not drawn) [Example 495, 5-amino-N-[5-(5-amino-3,3-difluoro-5-methyl-azepan-1-yl)-1-methyl-pyrazol-4-yl]-2-(2,6-difluorophenyl)thiazole-4-carboxamide]",888 nM,5400 nM,–,–,–
"COC1(C)CCN(c2c(NC(=O)c3nc(-c4c(F)cccc4F)sc3N)cnn2C)CCC1N (single isomer, unassigned) [Example 503, 5-amino-N-[5-(5-amino-4-methoxy-4-methyl-azepan-1-yl)-1-methyl-pyrazol-4-yl]-2-(2,6-difluorophenyl)thiazole-4-carboxamide]",–,–,–,–,EC50 ([1]; 72 hours): 108 nM; IC50 (BaF3 parental cells; [6]): 11000 nM
"Cn1ncc(NC(=O)c2nc(-c3c(F)cccc3F)sc2N)c1N1CCCC2(CCCN2)CC1 (stereo not drawn) [Example 351, 5-amino-N-[5-(1,9-diazaspiro[4.6]undecan-9-yl)-1-methyl-pyrazol-4-yl]-2-(2,6-difluorophenyl)thiazole-4-carboxamide]",4900 nM,5600 nM,–,–,–
